Here are results for 17 compounds from patent US20050222146A1, “N-substituted-n-sulfonylaminocyclopropane compounds and pharmaceutical use thereof” (priority 2003, published 2005).

Experiment [1] concerns the target T1, aggrecanase-1 (Homo sapiens, UniProt O75173).
T1 sequence (O75173 213-837): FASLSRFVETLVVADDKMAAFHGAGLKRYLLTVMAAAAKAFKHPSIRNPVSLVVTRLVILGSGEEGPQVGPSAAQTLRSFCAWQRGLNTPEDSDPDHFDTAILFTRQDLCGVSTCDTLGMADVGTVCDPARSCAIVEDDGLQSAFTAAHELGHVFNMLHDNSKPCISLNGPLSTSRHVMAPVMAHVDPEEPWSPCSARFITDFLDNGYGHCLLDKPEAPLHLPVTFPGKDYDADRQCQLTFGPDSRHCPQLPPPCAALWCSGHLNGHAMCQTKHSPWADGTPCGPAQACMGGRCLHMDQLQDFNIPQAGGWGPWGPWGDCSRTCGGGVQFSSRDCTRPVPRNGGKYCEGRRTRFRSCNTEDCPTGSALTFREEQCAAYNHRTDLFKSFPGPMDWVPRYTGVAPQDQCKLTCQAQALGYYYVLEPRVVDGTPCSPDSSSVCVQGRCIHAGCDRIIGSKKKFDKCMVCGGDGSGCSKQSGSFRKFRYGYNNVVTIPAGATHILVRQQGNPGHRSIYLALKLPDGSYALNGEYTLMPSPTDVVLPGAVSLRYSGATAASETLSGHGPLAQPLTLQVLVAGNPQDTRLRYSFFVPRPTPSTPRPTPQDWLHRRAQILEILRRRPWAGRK
Put plainly: Aggrecanase-1 inhibitory action, Particle Assay (GAG release from aggrecan-containing polyacrylamide particles). The experiment is classed as biochemical. The settings on record: 37° C. for 15 hr, read-out: Experimental Example 1 IC50 AG1. How it is done: Aggrecanase-1 Inhibitory Action
Particle Assay was used for determination of aggrecanase activity.
(§1) The enzyme and substrate were diluted with Tris-HCl buffer, and test compounds were diluted with dimethyl sulfoxide (DMSO).
Test compounds and the enzyme were added into 96-well plate, and polyacrylamide particles containing aggrecan were added as a substrate and the mixture was incubated at 37° C. for 15 hr.
After incubation; the supernatant was transferred to another plate, and mixed with 1,9-dimethylmethylene blue. The absorbance at 595 nm was measured to quantify the amount of glycosaminoglycan (GAG) released in the reaction supernatant. Whale chondroitin sulfate was used as the standard of GAG. The inhibitory activity of the compound in each well (%) was calculated based on the values of enzyme-free well and inhibitor-free well. The inhibitory activity of the compound was represented as IC50 (μM).

Experiment [2] deals with T2, MMP-1 (Homo sapiens, UniProt P03956).
T2 sequence (P03956 100-469): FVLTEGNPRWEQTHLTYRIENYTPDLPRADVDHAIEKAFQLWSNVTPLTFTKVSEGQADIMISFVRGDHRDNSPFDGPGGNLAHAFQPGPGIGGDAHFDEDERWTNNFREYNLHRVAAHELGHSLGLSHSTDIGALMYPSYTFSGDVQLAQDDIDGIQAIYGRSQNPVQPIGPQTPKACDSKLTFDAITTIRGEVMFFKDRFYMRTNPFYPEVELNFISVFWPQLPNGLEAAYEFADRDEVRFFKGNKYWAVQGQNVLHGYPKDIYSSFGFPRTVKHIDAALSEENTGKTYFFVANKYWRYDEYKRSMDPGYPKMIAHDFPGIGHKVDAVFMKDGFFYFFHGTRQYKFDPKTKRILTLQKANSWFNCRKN
The experiment in a line: MMP-1 inhibitory action, Type I collagen Activity Measurement kit (FITC-labeled collagen type I). The format is biochemical. The settings on record: 37° C. for 3 hr, read-out: Experimental Example 2 IC50 MMP1. On the procedure:
For MMP-1 Assay, Type I collagen Activity Measurement kit (YAGAI YU-72013) modified to a 96-well plate format was used.
The principle of the kit is based on the property of collagen that becomes soluble in ethanol after being cleaved by MMP-1.
as §1
The enzyme and test compounds were added into 96-well plate, and fluorescein isothiocianate (FITC)-labeled collagen type I was added as a substrate and the mixture was incubated at 37° C. for 3 hr.
The reaction was terminated by addition of Tris-HCl buffer containing ethanol. After centrifugation, the supernatant containing denatured substrate was transferred to another 96-well plate. The collagenase activity of MMP-1 was determined by measuring FITC fluorescence intensity (excitation wavelength 485 nm, emission wavelength 530 nm) of each well. The inhibitory activity of the compound in each well (%) was calculated based on the values of enzyme-free well and inhibitor-free well. The inhibitory activity of the compound was represented as IC50 (μM).

Where only a bound is given, the exact number is not on record here.

In general, IC50 refers to the point on the concentration scale where inhibition reaches its midpoint. For the compound `O=C(O)[C@@]1(N(CCN2CCOCC2)S(=O)(=O)c2ccc(-c3ccc(Cl)cc3)s2)C[C@H]1c1ccccc1` [Example 2-14, (1R,2S)-1-[[5-(4-Chloro-phenyl)-thiophene-2-sulfonyl]-(2-morpholin-4-yl-ethyl)-amino]-2-phenyl-cyclopropanecarboxylic acid], the IC50 in experiment [1] is at least 1 µM; in experiment [2] it was at least 10 µM.

Consider `O=C(O)CN([C@]1(C(=O)O)C[C@H]1c1cccc(OCc2ccccc2)c1)S(=O)(=O)c1ccc(-c2ccc(Cl)cc2)cc1` (relative stereo) [Example 1-39, (1R*,2S*)-2-(3-benzyloxy-phenyl)-1-[carboxymethyl-(4′-chloro-biphenyl-4-sulfonyl)-amino]-cyclopropanecarboxylic acid], for which the IC50 in experiment [1] was below 0.1 µM; in experiment [2], at least 10 µM.

As to `O=C(O)CN([C@]1(C(=O)O)C[C@H]1c1cc(Cl)ccc1C(F)(F)F)S(=O)(=O)c1ccc(-c2ccc(Cl)cc2)cc1` (relative stereo) [Example 1-35, (1R*,2S*)-1-[carboxymethyl-(4′-chloro-biphenyl-4-sulfonyl)-amino]-2-(5-chloro-2-trifluoromethyl-phenyl)-cyclopropanecarboxylic acid], the IC50 was below 1 µM in experiment [1] and at least 10 µM in experiment [2].

Consider `O=C(O)[C@@]1(N(Cc2noc(=O)[nH]2)S(=O)(=O)c2ccc(-c3ccc(Cl)cc3)cc2)C[C@H]1c1cccc(Oc2ccccc2)c1` (relative stereo) [Example 1-72, (1R*,2S*)-1-[(4′-chloro-biphenyl-4-sulfonyl)-(5-oxo-4,5-dihydro-[1,2,4]oxadiazol-3-ylmethyl)-amino]-2-(3-phenoxy-phenyl)-cyclopropanecarboxylic acid], for which the values for the half-inhibitory concentration (IC50) in experiment [1] and in experiment [2] were below 0.1 µM and at least 10 µM, respectively.

In the case of `CC(C)(C)OC(=O)N1CCC(Oc2cccc([C@H]3C[C@]3(C(=O)O)N(CC(=O)O)S(=O)(=O)c3ccc(-c4ccc(Cl)cc4)cc3)c2)CC1` (relative stereo) [Example 1-67, 4-(3-{(1R*,2S*)-2-Carboxy-2-[carboxymethyl-(4′-chloro-biphenyl-4-sulfonyl)-amino]-cyclopropyl}-phenoxy)-piperidine-1-carboxylic acid tert-butyl ester], the figures for the half-inhibitory concentration (IC50) in experiment [1] and in experiment [2] were below 0.1 µM and at least 10 µM, respectively.

Consider `O=C(O)c1cccnc1CN([C@]1(C(=O)O)C[C@H]1c1ccccc1)S(=O)(=O)c1ccc(-c2ccc(Cl)cc2)cc1` (relative stereo) [Example 1-56, 2-{[((1R*,2S*)-1-carboxy-2-phenyl-cyclopropyl)-(4′-chloro-biphenyl-4-sulfonyl)-amino]-methyl}-nicotinic acid], for which the values for the IC50 in experiment [1] and in experiment [2] were below 1 µM and at least 10 µM, respectively.

`O=C(O)c1cc(CN(C2(C(=O)O)CC2c2ccccc2)S(=O)(=O)c2ccc(-c3ccc(Cl)cc3)cc2)on1` [Example 1-82, 5-{[((R, 2S*-1-carboxy-2-phenyl-cyclopropyl)-(4′-chloro-biphenyl-4-sulfonyl)-amino]-methyl}-isooxazole-3-carboxylic acid]: the figures for the concentration for half-maximal inhibition (IC50) in experiment [1] and in experiment [2] were below 1 µM and at least 10 µM, respectively.

In the case of `N#Cc1ccccc1[C@@H]1C[C@@]1(C(=O)O)N(CC(=O)O)S(=O)(=O)c1ccc(-c2ccc(Cl)cc2)cc1` (relative stereo) [Example 1-28, (1R*,2S*)-1-[carboxymethyl-(4′-chloro-biphenyl-4-sulfonyl)-amino]-2-(2-cyano-phenyl)-cyclopropanecarboxylic acid], the half-inhibitory concentration (IC50) in experiment [1] is below 1 µM; in experiment [2], at least 10 µM.

In the case of `O=C(O)CN(C1(C(=O)O)C[C@H]1Cc1ccccc1)S(=O)(=O)c1ccc(-c2ccc(Cl)cc2)cc1` (stereo in doubt) [Example 1-3, (1S,2R)-2-benzyl-1-[carboxymethyl-(4′-chloro-biphenyl-4-sulfonyl)-amino]-cyclopropanecarboxylic acid], the half-inhibitory concentration (IC50) in experiment [1] is below 1 µM; in experiment [2] it was at least 10 µM.

`O=C(O)CN([C@]1(C(=O)O)C[C@H]1c1cccc(C(F)(F)F)c1)S(=O)(=O)c1ccc(-c2ccc(Cl)cc2)cc1` (relative stereo) [Example 1-34, (1R*,2S*)-1-[carboxymethyl-(4′-chloro-biphenyl-4-sulfonyl)-amino]-2-(3-trifluoromethyl-phenyl)-cyclopropanecarboxylic acid]: the figures for the IC50 in experiment [1] and in experiment [2] were below 0.1 µM and at least 10 µM, respectively.

As to `O=C(O)c1cccc(CN([C@]2(C(=O)O)C[C@H]2c2cccc(Nc3ccccn3)c2)S(=O)(=O)c2ccc(-c3ccc(Cl)cc3)cc2)c1` (relative stereo) [Example 1-86, 3-{[{(1R*,2S*)-1-carboxy-2-[3-(pyridin-2-ylamino)-phenyl]-cyclopropyl}-(4′-chloro-biphenyl-4-sulfonyl)-amino]-methyl}benzoic acid], the IC50 is below 0.1 µM in experiment [1] and at least 10 µM in experiment [2].

Turning to `O=C(O)CN([C@]1(C(=O)O)C[C@H]1c1c(Cl)cccc1Cl)S(=O)(=O)c1ccc(-c2ccc(Cl)cc2)cc1` (relative stereo) [Example 1-29, (1R*,2S*)-1-[carboxymethyl-(4′-chloro-biphenyl-4-sulfonyl)-amino]-2-(2,6-dichloro-phenyl)-cyclopropanecarboxylic acid], the IC50 is below 1 µM in experiment [1] and at least 10 µM in experiment [2].

Consider `O=C(O)CN([C@]1(C(=O)O)C[C@H]1c1cccc(O)c1)S(=O)(=O)c1ccc(-c2ccc(Cl)cc2)cc1` (relative stereo) [Example 1-66, (1R*,2S*)-1-[carboxymethyl-(4′-chloro-biphenyl-4-sulfonyl)-amino]-2-(3-hydroxy-phenyl)-cyclopropanecarboxylic acid], for which the results for the IC50 in experiment [1] and in experiment [2] were below 0.1 µM and at least 10 µM, respectively.

Consider `O=C(O)c1cccc(CN([C@]2(C(=O)O)C[C@H]2c2cccc(OCCN3CCCC3)c2)S(=O)(=O)c2ccc(-c3ccc(Cl)cc3)cc2)c1` (relative stereo) [Example 1-100, 3-{[{(1R*,2S*)-1-carboxy-2-[3-(2-pyrrolidin-1-yl-ethoxy)-phenyl]-cyclopropyl}-(4′-chloro-biphenyl-4-sulfonyl)-amino]-methyl}-benzoic acid], for which the values for the IC50 in experiment [1] and in experiment [2] were below 1 µM and at least 10 µM, respectively.

Regarding `O=C(O)CN([C@]1(C(=O)O)C[C@H]1c1cccc(Cl)c1)S(=O)(=O)c1ccc(-c2ccc(Cl)cc2)cc1` (relative stereo) [Example 1-12, (1R*,2S*)-1-[carboxymethyl-(4′-chloro-biphenyl-4-sulfonyl)-amino]-2-(3-chloro-phenyl)-cyclopropanecarboxylic acid], the IC50 is below 1 µM in experiment [1] and at least 10 µM in experiment [2].

Take `COc1ccccc1[C@@H]1C[C@@]1(C(=O)O)N(CC(=O)O)S(=O)(=O)c1ccc(-c2ccc(Cl)cc2)cc1` (relative stereo) [Example 1-22, (1R*,2S*)-1-[carboxymethyl-(4′-chloro-biphenyl-4-sulfonyl)-amino]-2-(2-methoxy-phenyl)-cyclopropanecarboxylic acid]: the figures for the IC50 in experiment [1] and in experiment [2] were below 1 µM and at least 10 µM, respectively.

In the case of `O=C(O)[C@@]1(N(CCNc2nnn[nH]2)S(=O)(=O)c2ccc(-c3ccc(Cl)cc3)cc2)C[C@H]1c1cccc(Oc2ccccc2)c1` (relative stereo) [Example 1-109, (1R*,2S*)-1-{(4′-chloro-biphenyl-4-sulfonyl)-[2-(1H-tetrazol-5-ylamino)-ethyl]-amino}-2-(3-phenoxy-phenyl)-cyclopropanecarboxylic acid], the IC50 in experiment [1] is below 0.1 µM; in experiment [2], at least 10 µM.
